Measured values as given in US10597370B2, “2-(benzothiazol-2-yl)-2-cyano-acetamide derivatives and their use as endothelial lipase inhibitors” (BRISTOL-MYERS SQUIBB COMPANY, priority 2016, dated 2020).

Biological target: T1, Endothelial lipase (EL) (Homo sapiens, UniProt Q9Y5X9)
T1 construct: transformed by RAGE technology (Athersys) to overexpress endogenous EL; endogenous in cells; the conditioned medium served as the enzyme source
T1 sequence (Q9Y5X9 21-500): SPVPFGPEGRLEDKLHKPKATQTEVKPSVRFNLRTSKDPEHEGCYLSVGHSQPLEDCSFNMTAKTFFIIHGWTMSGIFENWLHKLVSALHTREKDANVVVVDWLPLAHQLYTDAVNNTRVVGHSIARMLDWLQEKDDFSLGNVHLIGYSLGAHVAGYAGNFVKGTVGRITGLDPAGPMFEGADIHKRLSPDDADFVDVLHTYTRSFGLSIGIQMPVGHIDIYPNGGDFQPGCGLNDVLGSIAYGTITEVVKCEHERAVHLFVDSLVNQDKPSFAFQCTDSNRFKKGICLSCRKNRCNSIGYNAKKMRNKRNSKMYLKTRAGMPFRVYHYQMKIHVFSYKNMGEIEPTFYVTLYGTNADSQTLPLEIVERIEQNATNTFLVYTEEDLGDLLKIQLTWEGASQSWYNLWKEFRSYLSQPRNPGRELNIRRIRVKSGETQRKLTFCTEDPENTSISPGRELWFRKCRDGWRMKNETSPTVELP
Assay: Endothelial lipase (EL) enzymatic assay with fluorescent substrate A10070 in DMPG vesicles
Type: biochemical
Conditions: conditioned media from HT-1080 cells overexpressing endogenous EL; 20 min preincubation at 37° C.
Procedure: Endothelial lipase activity was measured using a fluorescent substrate, A10070, (Invitrogen, CA) doped into an artificial vesicle containing DMPG (Avanti Polar Lipids) as the excipient. Vesicles were prepared by combining 285 μL of 1 mM DMPG in a 1:1 mixture of MeOH and CHCl3 with 15 μL of 1 mM A10070 in a 1:1 mixture of MeOH and CHCl3. The mixture was dried under nitrogen and resuspended in 150 μL of 50 mM HEPES pH 8.0 buffer containing 100 mM NaCl and 0.2 mM EDTA. The sample was allowed to sit at rt for 15 min and then was sonicated 3×4 mins on ice with a Branson Sonicator using duty cycle 1. This preparation provides vesicles with a mole fraction of 0.05 for the FRET substrate.
The enzymatic assay was measured using white, opaque 96-well half area plates. Each well contained 60 μL of assay buffer (50 mM HEPES pH 8.0, 50 mM NaCl and 1 mM CaCl2) and 2 ul of a DMSO solution containing compound of interest. Conditioned media obtained from HT-1080 cells, which were transformed by RAGE technology (Athersys) to overexpress endogenous EL, was added and the reaction was allowed to incubate for 20 min at 37° C. with gentle agitation. The reaction was started by the addition of 20 μL of a 1:4 dilution of vesicles. The final total reaction volume was 100 μL. The reaction rates were measured on a Gemini plate reader with an excitation wavelength of 488 nm and an emission of 530 nm. Readings were taken every 20 seconds for 10 min with agitation between each reading. The slope of the linear portion of the readout was used to calculate the rate of the reaction.

Compound | IC50 [nM]
N#CC(C(=O)NCC(=O)NC1CC1)c1nc2ccc(-c3ccc(F)nc3)cc2s1 (stereo not drawn) [Example 16, 2-cyano-N-[(cyclopropyl-carbamoyl)methyl]-2-[6-(6-fluoropyridin-3-yl)-1,3-benzothiazol-2-yl] acetamide] | 172
N#CC(C(=O)NCC(=O)NC1CC1)c1nc2ncc(-c3ccccc3)cc2s1 (stereo not drawn) [Example 21, 2-cyano-N-(2-(cyclopropylamino)-2-oxoethyl)-2-(6-phenylthiazolo[4,5-b]pyridin-2-yl)acetamide] | 13
N#CC(C(=O)NCC(=O)NC1CC1)c1nc2ccc(-c3cccc(C(=O)N4CCCCC4)c3)cc2s1 (stereo not drawn) [Example 5, 2-cyano-N-[(cyclopropyl-carbamoyl)methyl]-2-{6-[3-(piperidine-1-carbonyl)phenyl]-1,3-benzothiazol-2-yl}acetamide] | 16
N#CC(C(=O)NCC(=O)NC1CC1)c1nc2ccc(-c3ccc4c(c3)C(=O)NC4)cc2s1 (stereo not drawn) [Example 6, 2-cyano-N-[(cyclopropyl-carbamoyl)methyl]-2-[6-(3-oxo-2,3-dihydro-1H-isoindol-5-yl)-1,3-benzothiazol-2-yl] acetamide] | 259
CN1CCN(C(=O)c2cccc(-c3cc4nc(C(C#N)C(=O)NCC(=O)NC5CC5)sc4cc3F)c2)CC1 (stereo not drawn) [Example 29, 2-cyano-N-[(cyclopropyl-carbamoyl)methyl]-2-{6-fluoro-5-[3-(4-methylpiperazine-1-carbonyl)phenyl]-1,3-benzothiazol-2-yl}acetamide] | 1
N#CC(C(=O)NCC(=O)NC1CC1)c1nc2ccc(-c3cccc(C(=O)N4CCOCC4)c3)cc2s1 (stereo not drawn) [Example 10, 2-cyano-N-[(cyclopropyl-carbamoyl)methyl]-2-{6-[3-(morpholine-4-carbonyl)phenyl]-1,3-benzothiazol-2-yl]acetamide] | 18
CN(C)C(=O)c1ccc(-c2ccc3nc(C(C#N)C(=O)NCC(=O)NC4CC4)sc3c2)cc1F (stereo not drawn) [Example 3, 4-{2-[cyano ({[(cyclopropyl-carbamoyl)methyl]carbamoyl})methyl]-1,3-benzothiazol-6-yl}-2-fluoro-N,N-dimethyl-benzamide] | 238
N#CC(C(=O)NCC(=O)NC1CC1)c1nc2cc(-c3ccccc3)c(F)cc2s1 (stereo not drawn) [Example 27, 2-cyano-N-[(cyclopropyl-carbamoyl)methyl]-2-(6-fluoro-5-phenyl-1,3-benzothiazol-2-yl)acetamide] | 13
N#CC(C(=O)NCC(=O)N1CCCC1)c1nc2ccc(-c3ccccc3)cc2s1 (stereo not drawn) [Example 18, 2-cyano-N-[2-oxo-2-(pyrrolidin-1-yl)ethyl]-2-(6-pheny1-1,3-benzothiazol-2-yl)acetamide] | 1320
N#CC(C(=O)NCC(=O)NC1CC1)c1nc2ncc(-c3cccc(C(=O)N4CCOCC4)c3)cc2s1 (stereo not drawn) [Example 22, 2-cyano-N-[(cyclopropyl-carbamoyl)methyl]-2-{6-[3-(morpholine-4-carbonyl)phenyl]-[1,3]thiazolo[4,5-b]pyridin-2-yl}acetamide] | 22
COCCNC(=O)c1ccc(-c2ccc3nc(C(C#N)C(=O)NCC(=O)NC4CC4)sc3c2)cc1 (stereo not drawn) [Example 12, 4-{2-[cyano ({[(cyclopropyl-carbamoyl)methyl]carbamoyl})methyl]-1,3-benzothiazol-6-yl}-N-(2-methoxyethyl) benzamide] | 16
Cn1ccc(-c2ccc3nc(C(C#N)C(=O)NCC(=O)NC4CC4)sc3c2)cc1=O (stereo not drawn) [Example 4, 2-cyano-N-[(cyclopropyl-carbamoyl)methyl]-2-[6-(1-methyl-2-oxo-1,2-dihydropyridin-4-yl)-1,3-benzothiazol-2-yl] acetamide] | > 10000
CN1CCN(C(=O)c2ccc(-c3cnc4nc(C(C#N)C(=O)NCC(=O)NC5CC5)sc4c3)cc2)CC1 (stereo not drawn) [Example 23, 2-cyano-N-[(cyclopropyl-carbamoyl)methyl]-2-{6-[4-(4-methylpiperazine-1-carbonyl)phenyl]-[1,3]thiazolo[4,5-6]pyridin-2-yl}acetamide] | 33
N#CC(C(=O)NCC(=O)NC1CC1)c1nc2ccc(-c3ccc(C(N)=O)cc3)cc2s1 (stereo not drawn) [Example 11, 4-{2-[cyano ({[(cyclopropyl-carbamoyl)methyl]carbamoyl})methyl]-1,3-benzothiazol-6-yl} benzamide] | 26
CN1CCN(C(=O)c2ccc(-c3ccc4nc(C(C#N)C(=O)NCC(=O)NC5CCC5)sc4c3)cc2)CC1 (stereo not drawn) [Example 19, 2-cyano-N-[(cyclobutyl-carbamoyl)methyl]-2-{6-[4-(4-methyl-piperazine-1-carbonyl)phenyl]-1,3-benzothiazol-2-yl} acetamide] | 3140
CN(C)C(=O)c1cccc(-c2ccc3nc(C(C#N)C(=O)NCC(=O)NC4CC4)sc3c2)c1 (stereo not drawn) [Example 2, 3-{2-[cyano ({[(cyclopropyl-carbamoyl)methyl]carbamoyl})methyl]-1,3-benzothiazol-6-yl}-N,N-dimethyl-benzamide] | 398
COCCNC(=O)c1ccc(-c2cnc3nc(C(C#N)C(=O)NCC(=O)NC4CC4)sc3c2)cc1 (stereo not drawn) [Example 25, 4-{2-[cyano({[(cyclopropyl-carbamoyl)methyl]carbamoyl})methyl]-[1,3]thiazolo[4,5-b]pyridin-6-yl}-N-(2-methoxyethyl) benzamide] | 40
N#CC(C(=O)NCC(=O)NC1CC1)c1nc2ccc(-c3ccc(C(=O)N4CCC4)cc3)cc2s1 (stereo not drawn) [Example 7, 2-{6-[4-(azetidine-1-carbonyl)phenyl]-1,3-benzothiazol-2-yl}-2-cyano-N-[(cyclopropyl-carbamoyl)methyl] acetamide] | 15
N#CC(C(=O)NCC(=O)NC1CC1)c1nc2ccc(-c3ccc(NC(=O)OCc4ccccc4)cc3)cc2s1 (stereo not drawn) [Example 15, benzyl N-(4-{2-[cyano ({[(cyclopropyl-carbamoyl)methyl]carbamoyl})methyl]-1,3-benzothiazol-6-yl}phenyl) carbamate] | 1.4
N#CC(C(=O)NCC(=O)NC1CC1)c1nc2ncc(-c3ccc(C(N)=O)cc3)cc2s1 (stereo not drawn) [Example 24, 4-{2-[cyano({[(cyclopropyl-carbamoyl)methyl]carbamoyl})methyl]-[1,3]thiazolo[4,5-b]pyridin-6-yl}benzamide] | 31
N#CC(C(=O)NCC(=O)NC1CC1)c1nc2ccc(-c3ccc(C(=O)N4CCOCC4)cc3)cc2s1 (stereo not drawn) [Example 14, 2-cyano-N-(2-(cyclopropylamino)-2-oxoethyl)-2-(6-(4-(morpholine-4-carbonyl)phenyl)benzo[d]thiazol-2-yl)acetamide] | 62
N#CC(C(=O)NCC(=O)NC1COC1)c1nc2ccc(-c3ccc(F)nc3)cc2s1 (stereo not drawn) [Example 17, 2-cyano-2-[6-(6-fluoropyridin-3-yl)-1,3-benzothiazol-2-yl]-N-{[(oxetan-3-yl)carbamoyl]methyl} acetamide] | 67
CN1CCN(C(=O)c2ccc(-c3ccc4nc(C(C#N)C(=O)NCC(=O)NC5CC5)sc4c3)cc2)CC1 (stereo not drawn) [Example 20, 2-cyano-N-[(cyclopropyl-carbamoyl)methyl]-2-{6-[4-(4-methyl-piperazine-1-carbonyl)phenyl]-1,3-benzothiazol-2-yl} acetamide] | 130
N#CC(C(=O)NCC(=O)NC1CC1)c1nc2ccc(-c3ccccc3)cc2s1 (stereo not drawn) [Example 1, 2-cyano-N-(2-(cyclopropylamino)-2-oxoethyl)-2-(6-phenylbenzo[d]thiazol-2-yl)acetamide] | 13
